In publication PMC3631453 (ACS chemical biology, 2013):
Marks after values point to notes of the source that are not given here.

How the values were obtained:
MDA-MB-231 = test: Growth inhibition of ER-negative MDA-MB-231 cells, 96h; format: cell-based; details: read-out: Growth inhibition IC50 after 96h MDA-MB-231, OHT ligands
MCF-7 = test: Growth inhibition of ER-positive MCF-7 cells, 96h; format: cell-based; details: read-out: Growth inhibition IC50 after 96h MCF7, OHT ligands
U2OS cells = test: Cell density of transfected U2OS cells; format: cell-based
ERβ = ERβ (Homo sapiens, UniProt Q92731); test: ER-regulated reporter gene; details: U2OS, read-out: Hormonal activity (U2OS Cells) ERβ IA (intrinsic activity)
Chain of ERβ (Q92731 whole entry): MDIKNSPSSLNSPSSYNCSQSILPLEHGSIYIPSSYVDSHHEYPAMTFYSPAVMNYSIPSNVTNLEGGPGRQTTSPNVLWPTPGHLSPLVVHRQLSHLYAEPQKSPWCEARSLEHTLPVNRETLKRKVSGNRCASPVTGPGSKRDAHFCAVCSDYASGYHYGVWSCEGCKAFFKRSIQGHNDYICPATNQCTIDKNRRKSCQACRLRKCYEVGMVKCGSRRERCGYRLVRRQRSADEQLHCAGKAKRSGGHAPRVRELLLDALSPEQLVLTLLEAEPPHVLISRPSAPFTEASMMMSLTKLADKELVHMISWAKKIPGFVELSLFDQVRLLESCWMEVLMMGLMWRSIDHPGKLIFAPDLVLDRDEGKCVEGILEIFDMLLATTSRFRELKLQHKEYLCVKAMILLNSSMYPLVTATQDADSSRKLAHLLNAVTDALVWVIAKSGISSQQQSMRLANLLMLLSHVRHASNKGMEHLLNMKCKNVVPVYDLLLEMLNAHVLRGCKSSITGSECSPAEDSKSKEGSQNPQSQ

full-length human ERβ = full-length human ERβ (Homo sapiens, UniProt Q92731); details: relative to E2 = 100%; cited from earlier work
Chain of full-length human ERβ (Q92731 whole entry): as above

Row | SMILES | IC50 (MDA-MB-231) [nM] | IC50 (MCF-7) [nM] | Hormonal activity (U2OS Cells) ERα CD (cell density) (U2OS cells; 1μM) [%] | Hormonal activity (U2OS Cells) ERβ CD (cell density) (U2OS cells; 1μM) [%] | Emax (ERβ) [%] | Hormonal activity (U2OS Cells) ERα CD (cell density) (U2OS cells; 10nM) [%] | Hormonal activity (U2OS Cells) ERβ CD (cell density) (U2OS cells; 10nM) [%] | RBA for ERβ (full-length human ERβ)
1 | CC/C(=C(\c1ccc(O)cc1)c1ccc(OCCN(C)C)cc1)c1ccccc1 [OHT, hydroxytamoxifen] | 4590 | 150 | 110 | 92 |  |  |  | 
2 | CC/C(=C(/CC)c1ccc(O)cc1)c1ccc(O)cc1 [DES, diethylstilbestrol] |  |  |  |  | 111 | 103 | 90 | 278 ± 54 ^f %
